This note sets out measurements from article PMC3005942, “Cloning, Expression, and Purification of a Nitric Oxide Synthase-Like Protein from Bacillus cereus” (Biochemistry Research International, 2009).

The target of assay [1] is T1, bcNOS (Bacillus cereus, UniProt Q814I7).
T1 construct: gene BC_5444; full length, 356 residues, 43 kDa, homodimer; N-terminal His6 tag (pET28a, NdeI/EcoRI), E. coli BL21(DE3) pLysS; heme protein
T1 sequence (Q814I7 1-356): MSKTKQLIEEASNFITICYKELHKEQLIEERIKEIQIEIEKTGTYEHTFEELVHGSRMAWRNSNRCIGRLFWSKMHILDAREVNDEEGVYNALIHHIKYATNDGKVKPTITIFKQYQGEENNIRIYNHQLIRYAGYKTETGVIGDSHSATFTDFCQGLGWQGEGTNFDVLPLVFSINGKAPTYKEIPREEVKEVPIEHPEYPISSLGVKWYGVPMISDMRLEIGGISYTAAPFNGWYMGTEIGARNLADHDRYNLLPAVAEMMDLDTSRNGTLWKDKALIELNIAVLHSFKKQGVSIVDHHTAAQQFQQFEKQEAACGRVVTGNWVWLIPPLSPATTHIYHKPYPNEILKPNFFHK
The assay can be described thus: difference spectroscopy, double-reciprocal analysis. Type of assay: binding. Conditions: distal sixth ligand of ferric heme.

Assay [2] has as its target T1, bcNOS. Nature of the assay: H2O2-dependent NOHA oxidation to nitrite, plate reader. Type of assay: biochemical. Conditions: H2O2, 25 °C, activator.

What is called Kd is the free concentration of one partner at which half of the binding sites on the other are occupied at equilibrium, for simple one-to-one binding. Read a high Kd as weaker binding. With `c1c[nH]cn1` [imidazole], binding on bcNOS [1] was put at a Kd of 181 ± 13 µM.

For `Nc1nc2c(c(=O)[nH]1)N[C@@H](CNc1ccc(C(=O)N[C@@H](CCC(=O)O)C(=O)O)cc1)CN2` [THF], the “H2O2-dependent NOHA oxidation to nitrite, plate reader” value on bcNOS [2] was “in the presence of NOHA and THF the activity doubled”.
